Measurements as given in patent US20110124604A1, “PHOSPHOLIPID RECEPTORS AS TARGETS FOR ENHANCING DRUG PERMEABILITY TO SELECTED TISSUES” (priority 2006, published 2011).
“Also recorded” adds a separate entry of the source.

Legend:
[1] = test system: bovine brain microvessel endothelial cell (BBMEC) monolayers; assay: Permeability of confluent BBMEC monolayers (FDX-3000 flux); format: cell-based; conditions: for effect on BBMEC permeability in words: 0.1, 1 and 10 uM; for onset of permeability effect: earliest time point tested 15 min
Method: The permeability effects of LPA and S1P were examined in various microvessel endothelial cell preparations. […] The BBMECs and the PBMEC were seeded (50,000 cells/cm2) on collagen coated, fibronectin treated, 6-well Transwell polycarbonate membrane inserts (0.4 um pore/24 mm diameter). The culture media consisted of: 45% minimum essential medium eagle (MEM), 45% Ham's P 12 nutrient mix, 10 mM HEPES, 13 mM sodium bicarbonate, 50 ug/ml gentamicin, 10% equine serum, 2.5 ug/ml amphotericin B, and 100 ug/ml heparin. The cell cultures were grown in a humidified 37° C. incubator with 5% CO2. The media was replaced every other day, and the BBMEC and PBMEC monolayers were used after reaching confluency (approximately 11-14 days).
Lyophilized LPA and S1P was purchased as lyophilized powder and was reconstituted into a 10 mM stock solution using 0.25% fatty acid-free bovine serum albumin (BSA) in assay buffer and kept at −20° C. until used. Working solutions of the phospholipids and C5a were prepared by diluting in assay buffer (0.25% BSA in the assay buffer).
Permeability studies were performed on confluent BBMEC and PBMEC, monolayers at 370 C. All the cells were pretreated with assay buffer for 30 minutes at 37° C. The control group was treated with assay buffer (0.25% BSA [fatty acid free]). For these studies, 1.5 ml of assay buffer was added to the lumina] (apical) side of the monolayer and 2.5 ml of assay buffer was added to the ablumenal (basolateral) side of the monolayer. Treatment groups received either LPA (0.1, 1, and 10 uM) or S1P (0.1, 1, 10 uM), alone and in combination, on both sides of the inserts. Permeability across the cell monolayers was determined by adding 10 uM fluorescein-labeled dextran (FDX-3000; MW 3000) to the donor (apical) compartment. Samples (100 ul) were removed from the receiver (basolateral) compartment at various times (0, 15, 30, 60 and 90 minutes). Samples (100 ul) were also taken from the donor compartment at the start (time 0) and conclusion (90 min) of the experiment. The concentration of FDX-3000 in the donor and receiver samples was measured spectrofluorometrically using a Shimadzu RFU5000 spectrofluorometer (Shimadzu Scientific Instruments, Columbia, Md., USA) with Ex (7 v) at 488 nm and Em (2 k.) at 510 nm. Permeability was expressed as the percent transfer of the fluorescent marker across the monolayers. The percent transfer was determined by dividing the cumulative concentration in the receiver compartment by the original concentration in the donor compartment at time zero. Permeability coefficients were calculated from the following formula:
V=volume of receiver chamber SA=surface area of cell monolayer Cd=conc of marker in the donor at time 0 Cr=the cumulative conc of marker in the receiver at the sample at time T

blood-brain barrier [2] = format: in vivo, mouse; conditions: 15 minutes, mice
Method: FIG. 12. Adult female Balb/c mice were anesthetized with ketamine xylazine cocktail, and given a bolus i.v. (tail vein) injection of the near infrared fluorescent dye, rhodamine 800 (3.2 μmol/kg) either alone or in the presence of LPA (1.0 mg/kg) or the combination of LPA and S1P (0.1 mg/kg). Mice were sacrificed at 15 minutes following injection of rhodamine 800 and following perfusion with formalin through cardiac puncture, the brain was removed and sliced (3 mm) coronally. The appearance of rhodamine 800 was visualized using an Odyssey near infrared imaging system. […] The rhodamine 800 is confined primarily to the cerebral spinal fluid present in the ventricles (the small bright regions observed in the various brain slices). […] This is evident by the intense bright fluorescence of the brain slices in the LPA treated mouse.

BBMEC monolayers = assay: Polarity studies: apical or basolateral application on BBMEC monolayers; format: cell-based, bovine
Method: (§1) The permeability effects of LPA and S1P were examined in various microvessel endothelial cell preparations. Primary bovine and porcine brain microvessel endothelial cells (BBMEC and PBMEC, respectively) were collected from the gray matter of fresh cow and pig cerebral cortices using a combination of enzymatic digestion and centrifugal separation methods previously described. The BBMECs and the PBMEC were seeded (50,000 cells/cm2) on collagen coated, fibronectin treated, 6-well Transwell polycarbonate membrane inserts (0.4 um pore/24 mm diameter). The culture media consisted of: 45% minimum essential medium eagle (MEM), 45% Ham's P 12 nutrient mix, 10 mM HEPES, 13 mM sodium bicarbonate, 50 ug/ml gentamicin, 10% equine serum, 2.5 ug/ml amphotericin B, and 100 ug/ml heparin. […]
For studies examining the functional polarity of LPA and S1P […] of the phospholipids were applied to either the apical or basolateral side of confluent brain microvessel endothelial cell monolayers. There was 30 min AB pretreatment followed by treatment with either LPA and S1P on either apical and/or basolateral side and the flux of FDX-3000 across the monolayer was measured. Permeability across the cell monolayers was determined by adding 10 uM fluorescein-labeled dextran (FDX-3000; MW 3000) to the donor compartment. […] Samples were analyzed as described above.

[3] = In vivo permeability study, 3H-methotrexate tissue distribution in mice; parameters: species or system mouse; conditions: female, Balb/c, mouse, brain / plasma, intravenous, 4 uCi total activity; methotrexate alone; 15 minutes after systemic administration; read-out: brain to plasma ratio of 3H-methotrexate in control mice
Method: (§2) FIG. 11. Bar graph showing 20 fold increase in ^3H-methotrexate uptake in mouse brain when LPA is present. Adult female Balb/c mice were administered radiolabeled methotrexate via bolus tail vein injection. The radiolabeled methotrexate was given either alone, or in the presence of 1.0 mg/kg LPA. Fifteen minutes after injection of radiolabeled methotrexate, the mice were sacrificed and blood and tissue (brain, lung, kidney and liver) samples removed. The brain was homogenized and the cerebral microvascular endothelial cells were separated from the rest of the brain via centrifugation in 13% dextran solution at 7500×g for 15 minutes. Samples of the brain parachyma were removed for determination of radioactivity along with other tissue homogenates. Under normal conditions less than 1% of the injected dose of radiolabeled methotrexate was delivered to the brain. However, in the presence of LPA, an approximately 20-fold enhancement of radiolabeled methotrexate delivery to the brain was observed.
(§3) Female Balb/c mice were used to assess BBB permeability in vivo. Mice received a bolus injection (ml/kg) of ^3H-methotrexate (4 uCi total activity) via the tail vein. The radiolabeled methotrexate was given in combination with either LPA (1 mg/kg) or vehicle (0.25% bovine serum albumin in phosphate buffered saline solution). Fifteen minutes after the injection of methotrexate, mice were anesthetized using intraperitoneal injection of ketamine and xylazine and a sample of blood was removed by cardiac puncture. Following the blood sample, mice were sacrificed and various tissues including, the brain, lung, liver and kidney, were removed for determination of 3H-methotrexate. Blood samples were spun for 8-10 minutes and 100 uL of plasma was collected. Tissue samples were weighed and homogenized with double the volume of tissue solubilizing agent (Scintigest™, Fisher Scientific). A 200 uL aliquot of the tissue homogenate was used to analyse the tissue samples. The samples were then mixed with Ultima Gold™ (Perkin Elmer) scintillation cocktail and analysed by liquid scintillation counter (Perkin Elmer) to determine the amount of ^3H-methotrexate present in the blood and tissue. The distribution of ^3H-methotrexate was based on the ratio of the radioactivity in the tissue versus the radioactivity in the plasma sample.

blood-brain barrier [4] = assay: as above; parameters: species or system mouse
Method: as §2, §3

blood-brain barrier [5] = assay: Rat cranial window model, clearance of FDX 10 kDa; format: in vivo; conditions: LPA 10 uM
Method: Cerebral vascular permeability was also evaluated using the rat cranial window model. For these studies male Wistar-Furth rats (n=15) were anesthetized (Inactin; thiobutabarbital 100 mg/kg ip), and a tracheotomy was performed. The rats were mechanically ventilated with room air and supplemental oxygen. A catheter was placed in the femoral artery for the measurement of systemic blood pressure and to obtain blood samples. A catheter was placed in the femoral vein for injection of intravascular tracer FDX 10 10a. […] Blood gases were also monitored and maintained within normal limits. […]
Permeability of the BBB was evaluated by calculating the clearance of FDX 10 kDa (10^−6 ml/s) from the area of parietal cortex exposed by the craniotomy, as previously described (Mayhan and Heistad, Am J. Physiol, 248: H712-H718, 1985; Mayhan, Brain Research, 927: 144-152, 2002). Briefly, the suffusate fluid was collected in glass test tubes with the aide of a fraction collector, and the concentration of FDX in the suffusate fluid during topical application of vehicle (saline) or LPA (10 μM) was determined using a spectrofluorometer. […] The clearance of 1010a FDX was calculated by multiplying the suffusate-to-plasma concentration by the suffusate flow rate (Mayhan and Heistad, Am J. Physiol, 248: H712-H718, 1985; Mayhan, Brain Research, 927: 144-152, 2002). […]

[6] = test system: porcine brain microvessel endothelial cells (PBMEC); assay: Permeability of porcine BMEC monolayers (FDX-3000 flux); format: cell-based; conditions: LPA 0.1, 1 and 10 uM
Method: as §1, with “diameter).” for “diameter). The culture media consisted of: 45% minimum essential medium eagle (MEM), 45% Ham's P 12 nutrient mix, 10 mM HEPES, 13 mM sodium bicarbonate, 50 ug/ml gentamicin, 10% equine serum, 2.5 ug/ml amphotericin B, and 100 ug/ml heparin.”
Permeability studies were performed on confluent BBMEC and PBMEC, monolayers at […]. […] Permeability across the cell monolayers was determined by adding 10 uM fluorescein-labeled dextran (FDX-3000; MW 3000) to the donor (apical) compartment. […] The concentration of FDX-3000 in the donor and receiver samples was measured spectrofluorometrically using a Shimadzu RFU5000 spectrofluorometer (Shimadzu Scientific Instruments, Columbia, Md., USA) with Ex (7 v) at 488 nm and Em (2 k.) at 510 nm. Permeability was expressed as the percent transfer of the fluorescent marker across the monolayers. The percent transfer was determined by dividing the cumulative concentration in the receiver compartment by the original concentration in the donor compartment at time zero. Permeability coefficients were calculated from the following formula: […]

[7] = LPA 1 mg/kg i.v., 15 minutes, mice

CCO [Ethanol, ethanol, reference compound]
increase in BBMEC monolayer permeability ([1]; ethanol 50 mM): 3 fold

CCCCCCCCCCCCC/C=C/[C@@H](O)[C@@H](N)COP(=O)(O)O [S1P, sphingosine 1-phosphate]
effect of S1P on the LPA-induced increase in rhodamine 800 brain distribution (blood-brain barrier [2]; LPA 1.0 mg/kg and S1P 0.1 mg/kg i.v.): prevents the increases | decrease in BBMEC monolayer permeability, applied apically or basolaterally (BBMEC monolayers; S1P 10 uM): approximately 2 fold | effect on BBMEC permeability in words ([1]; FDX-3000): equally as robust decrease in permeability; also recorded: decreased the permeability of FDX-3000; also recorded: concentration-dependent decreases | onset of permeability effect ([1]; BBMEC): ≤ 15 min | effect on the BBMEC permeability ([1]; S1P 0.1 uM): no significant effect | decrease in permeability of BBMEC ([1]; S1P 1 and 10 uM): 2 fold | effect of S1P on the permeability increase induced by LPA ([1]; S1P (10 uM) co-administered with LPA, BBMEC): completely overcome; also recorded: totally prevented; also recorded: abolished | effect of S1P on the permeability effect of ethanol ([1]; ethanol 50 mM and S1P, BBMEC): abolished; also recorded: decrease in permeability | effect of S1P on the permeability effect of horse serum ([1]; horse serum 10% and S1P, BBMEC): abolished; also recorded: decreased the permeability effect | duration of permeability effect ([1]; in the presence of S1P): 90 min

CN(Cc1cnc2nc(N)nc(N)c2n1)c1ccc(C(=O)N[C@@H](CCC(=O)O)C(=O)O)cc1 [^3H-methotrexate, methotrexate, reference compound]
Kp at 15 min [3]: ~0.02 | share of the injected dose delivered to the brain (blood-brain barrier [4]; radiolabeled methotrexate alone, normal conditions, mice): less than 1%

lysophosphatidic acid [LPA]
rhodamine 800 delivery to the brain with LPA (blood-brain barrier [2]; LPA 1.0 mg/kg i.v. with rhodamine 800 3.2 μmol/kg): substantially greater rhodamine 800 was delivered to the brain | onset of effect on cerebral vascular permeability (blood-brain barrier [5]): rapid in onset (within minutes) | reversal of permeability after LPA was stopped (blood-brain barrier [5]): returned to baseline levels extremely rapidly; also recorded: equally rapid in returning to baseline permeability | effect on porcine BMEC permeability in words [6]: concentration-dependent increase | increase in permeability following apical or basolateral application (BBMEC monolayers; LPA 10 uM, BBMEC): 2 fold | effect on 3H-methotrexate accumulation in liver or kidney (blood-brain barrier [4]; [7]): no significant increases; also recorded: no effect | increase in 3H-methotrexate accumulation in the lung (blood-brain barrier [4]; [7]): approximately 3 fold | brain to plasma ratio of 3H-methotrexate with LPA (blood-brain barrier [4]; LPA 1 mg/kg, 15 minutes after administration, mice): approximately 20% | onset of action in the mouse (blood-brain barrier [4]; LPA, mouse): ≤ 15 min | effect on BBMEC permeability in words ([1]; FDX-3000): concentration-dependent increase | onset of permeability effect ([1]; BBMEC): ≤ 15 min | increase in the permeability of BBMEC monolayers ([1]; LPA 10 uM, FDX-3000): 2 fold | increase in monolayer permeability ([1]; LPA 0.1 and 1 uM, FDX-3000, BBMEC): ~1.5 fold
